According to patent US20240376056A1, “PHENYL ACETAMIDE BASED IL-17A MODULATORS AND USES THEREOF” (DiCE Alpha, Inc., priority 2021, published 2024):

Molecular target: T1, IL-17A/A (Homo sapiens, UniProt Q16552)
T1 construct: purchased Genscript Z03228
T1 sequence (Q16552 24-155): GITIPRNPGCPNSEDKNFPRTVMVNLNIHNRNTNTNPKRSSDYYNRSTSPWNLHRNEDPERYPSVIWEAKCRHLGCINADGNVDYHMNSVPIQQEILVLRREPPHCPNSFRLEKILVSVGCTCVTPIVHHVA
Assay: HEK-Blue IL-17A/A inhibition assay (SEAP reporter)
Format: cell-based
Details: HEK-Blue cells (HEK 293 expressing IL-17RA, IL-17RC, Act1); IL-17A/A stimulation; 20 hours; SEAP read at A630; 4-parameter fit
How it was run: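 IC50 from a 4-parameter fit of SEAP signal (Quanti-Blue, A630) after 20 h co-incubation of compound and IL-17A/A. Reporter line: HEK 293 expressing IL-17RA, IL-17RC and Act1 with NFκB-SEAP; compound top final 10, 1 or 0.3 uM, DMSO 0.1% final.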

IC50 [µM] | SMILES
0.1 to 1 | CC(C)n1nccc1C(=O)N[C@H](C(=O)Nc1ccc([C@H](C)C(=O)NC(C2CC2)C(F)(F)F)cc1F)C(C1CC1)C1CC1 (stereo partly drawn) [Compound 26, N-((2S)-1,1-dicyclopropyl-3-((4-((2S)-1-((1-cyclopropyl-2,2,2-trifluoroethyl)amino)-1-oxopropan-2-yl)-2-fluorophenyl)amino)-3-oxopropan-2-yl)-1-isopropyl-1H-pyrazole-5-carboxamide]
> 1 | CC(C)n1nccc1C(=O)N[C@H](C(=O)Nc1ccc([C@H](C)C(=O)NC(Cc2ccccn2)C(F)(F)F)cc1F)C(C1CC1)C1CC1 (stereo partly drawn) [Compound 27, N-((2S)-1,1-dicyclopropyl-3-((2-fluoro-4-((2S)-1-oxo-1-((1,1,1-trifluoro-3-(pyridin-2-yl)propan-2-yl)amino)propan-2-yl)phenyl)amino)-3-oxopropan-2-yl)-1-isopropyl-1H-pyrazole-5-carboxamide]
0.1 to 1 | CC(C)n1nccc1C(=O)N[C@H](C(=O)Nc1ccc([C@H](C)C(=O)N2CCC(F)(F)C2)cc1F)C(C1CC1)C1CC1 [Compound 30]
> 1 | CC(C)n1nccc1C(=O)N[C@H](C(=O)Nc1ccc([C@H](C)C(=O)N2C[C@@H](O)[C@@H](F)C2)cc1F)C(C1CC1)C1CC1 [Compound 31, N-((S)-1.1-dicyclopropyl-3-((2-fluoro-4-((S)-1-((3S,4R)-3-fluoro-4-hydroxypyrrolidin-1-yl)-1-oxopropan-2-yl)phenyl)amino)-3-oxopropan-2-yl)-1-isopropyl-1H-pyrazole-5-carboxamide]
> 1 | CC(C)n1nccc1C(=O)N[C@H](C(=O)Nc1ccc([C@H](C)C(=O)NCC(N(C)C)C(F)(F)F)cc1F)C(C1CC1)C1CC1 (stereo partly drawn) [Compound 32, N-((2S)-1.1-dicyclopropyl-3-((4-((2S)-1-((2-(dimethylamino)-3,3,3-trifluoropropyl)amino)-1-oxopropan-2-yl)-2-fluorophenyl)amino)-3-oxopropan-2-yl)-1-isopropyl-1H-pyrazole-5-carboxamide]
> 1 | CC(C)n1nccc1C(=O)N[C@H](C(=O)Nc1ccc([C@H](C)C(=O)N2CC(F)(CO)C2)cc1F)C(C1CC1)C1CC1 [Compound 33, N-((S)-1,1-dicyclopropyl-3-((2-fluoro-4-((S)-1-(3-fluoro-3-(hydroxymethyl)azetidin-1-yl)-1-oxopropan-2-yl)phenyl)amino)-3-oxopropan-2-yl)-1-isopropyl-1H-pyrazole-5-carboxamide]
0.1 to 1 | CC(C)n1nccc1C(=O)N[C@H](C(=O)Nc1ccc([C@H](C)C(=O)NCCF)cc1F)C(C1CC1)C1CC1 [Compound 34, N-((S)-1,1-dicyclopropyl-3-((2-fluoro-4-((S)-1-((2-fluoroethyl)amino)-1-oxopropan-2-yl)phenyl)amino)-3-oxopropan-2-yl)-1-isopropyl-1H-pyrazole-5-carboxamide]
> 1 | CC(C)n1nccc1C(=O)N[C@H](C(=O)Nc1ccc([C@H](C)C(=O)NCC(F)(F)CNC(=O)OC(C)(C)C)cc1F)C(C1CC1)C1CC1 [Compound 35, tert-butyl (3-((S)-2-(4-((S)-3,3-dicyclopropyl-2-(1-isopropyl-1H-pyrazole-5-carboxamido)propanamido)-3-fluorophenyl)propanamido)-2,2-difluoropropyl)carbamate]
> 1 | CC(C)n1nccc1C(=O)N[C@H](C(=O)Nc1ccc([C@H](C)C(=O)NCc2ccccc2C(F)(F)F)cc1F)C(C1CC1)C1CC1 [Compound 36, N-((S)-1.1-dicyclopropyl-3-((2-fluoro-4-((S)-1-oxo-1-((2-(trifluoromethyl)benzyl)amino)propan-2-yl)phenyl)amino)-3-oxopropan-2-yl)-1-isopropyl-1H-pyrazole-5-carboxamide]
> 1 | CC(C)n1nccc1C(=O)N[C@H](C(=O)Nc1ccc([C@H](C)C(=O)N2CC3(C2)CC(F)(F)C3)cc1F)C(C1CC1)C1CC1 [Compound 37]
0.1 to 1 | CC(C)n1nccc1C(=O)N[C@H](C(=O)Nc1ccc([C@H](C)C(=O)N2C[C@H](F)[C@@H](F)C2)cc1F)C(C1CC1)C1CC1 [Compound 38, N-((S)-1,1-dicyclopropyl-3-((4-((S)-1-((3S,4S)-3,4-difluoropyrrolidin-1-yl)-1-oxopropan-2-yl)-2-fluorophenyl)amino)-3-oxopropan-2-yl)-1-isopropyl-1H-pyrazole-5-carboxamide]
> 1 | CC(C)n1nccc1C(=O)N[C@H](C(=O)Nc1ccc([C@H](C)C(=O)N2CCN(C(=O)OC(C)(C)C)CC2C(F)(F)F)cc1F)C(C1CC1)C1CC1 (stereo partly drawn) [Compound 39, tert-butyl 4-((S)-2-(4-((S)-3,3-dicyclopropyl-2-(1-isopropyl-1H-pyrazole-5-carboxamido)propanamido)-3-fluorophenyl)propanoyl)-3-(trifluoromethyl)piperazine-1-carboxylate]
0.1 to 1 | CC(C)n1nccc1C(=O)N[C@H](C(=O)Nc1ccc([C@H](C)C(=O)N2C[C@@H](F)[C@@H](F)C2)cc1F)C(C1CC1)C1CC1 [Compound 40, N-((S)-1,1-dicyclopropyl-3-((4-((S)-1-((3S,4R)-3,4-difluoropyrrolidin-1-yl)-1-oxopropan-2-yl)-2-fluorophenyl)amino)-3-oxopropan-2-yl)-1-isopropyl-1H-pyrazole-5-carboxamide]
0.1 to 1 | CC(C)n1nccc1C(=O)N[C@H](C(=O)Nc1ccc([C@H](C)C(=O)NC(c2ccccn2)C(F)(F)F)cc1F)C(C1CC1)C1CC1 (stereo partly drawn) [Compound 41, N-((2S)-1,1-dicyclopropyl-3-((2-fluoro-4-((2S)-1-oxo-1-((2,2,2-trifluoro-1-(pyridin-2-yl)ethyl)amino)propan-2-yl)phenyl)amino)-3-oxopropan-2-yl)-1-isopropyl-1 H-pyrazole-5-carboxamide]
0.1 to 1 | CC(C)n1nccc1C(=O)N[C@H](C(=O)Nc1ccc([C@H](C)C(=O)N(CC(F)(F)F)CC(F)(F)F)cc1F)C(C1CC1)C1CC1 [Compound 42, N-((S)-1-((4-((S)-1-(bis(2,2,2-trifluoroethyl)amino)-1-oxopropan-2-yl)-2-fluorophenyl)amino)-3,3-dicyclopropyl-1-oxopropan-2-yl)-1-isopropyl-1H-pyrazole-5-carboxamide]
> 1 | CC(C)n1nccc1C(=O)N[C@H](C(=O)Nc1ccc([C@H](C)C(=O)NC2(C(F)(F)F)COC2)cc1F)C(C1CC1)C1CC1 [Compound 43, N-((S)-1.1-dicyclopropyl-3-((2-fluoro-4-((S)-1-oxo-1-((3-(trifluoromethyl)oxetan-3-yl)amino)propan-2-yl)phenyl)amino)-3-oxopropan-2-yl)-1-isopropyl-1H-pyrazole-5-carboxamide]
0.1 to 1 | CC(C)n1nccc1C(=O)N[C@H](C(=O)Nc1ccc([C@H](C)C(=O)NCC(F)(F)C(F)(F)F)cc1F)C(C1CC1)C1CC1 [Compound 44, N-((S)-1,1-dicyclopropyl-3-((2-fluoro-4-((S)-1-oxo-1-((2,2,3,3,3-pentafluoropropyl)amino)propan-2-yl)phenyl)amino)-3-oxopropan-2-yl)-1-isopropyl-1H-pyrazole-5-carboxamide]
0.1 to 1 | CC(C)n1nccc1C(=O)N[C@H](C(=O)Nc1ccc([C@H](C)C(=O)N2CCOCCC2C(F)(F)F)cc1F)C(C1CC1)C1CC1 (stereo partly drawn) [Compound 45, N-((2S)-1,1-dicyclopropyl-3-((2-fluoro-4-((2S)-1-oxo-1-(5-(trifluoromethyl)-1,4-oxazepan-4-yl)propan-2-yl)phenyl)amino)-3-oxopropan-2-yl)-1-isopropyl-1H-pyrazole-5-carboxamide]
